Results from PMC6801708 (2019).

Test system: Pu22T14T23 (DNA, G4, none (G-to-T mutations at positions 14 and 23)) TGAGGGTGGGTAGGGTGGGTAA
Assay: CD melting at 262 nm
Conditions: K+ (20 mM KCl); 5 mM phosphate pH 7.0; 1 µM DNA, 3 µM ligand; Tm 77.4 to 80.6

Row | ΔTm | SMILES
1 | +3.2 °C | CN(C)CCNC(=O)c1cccn2c(=O)c3sc4ccccc4c3nc12
2 | +3.2 °C | CN(C)CCNC(=O)c1cccn2c(=O)c3cc4ccccc4cc3nc12
